Measurements as given in publication PMC8659060, “Neuroprotective Potential of Synthetic Mono-Carbonyl Curcumin Analogs Assessed by Molecular Docking Studies” (Molecules, 2021).
Where two headings read alike, the source gives them in different places.

Key:
AChE = target: T1, AChE (Electrophorus electricus, UniProt O42275); test: biochemical; settings: for inhibition at 62.5 µg/mL / inhibition at 125 µg/mL / inhibition at 250 µg/mL / inhibition at 500 µg/mL / inhibition at 1000 µg/mL: read-out: AChE percent enzyme inhibition, Mean ± SEM
T1 construct: obtaining AChE and BChE enzymes from electric eel and equine serum, respectively; from tissue; host or cells: electric eel
T1 sequence (O42275 24-633): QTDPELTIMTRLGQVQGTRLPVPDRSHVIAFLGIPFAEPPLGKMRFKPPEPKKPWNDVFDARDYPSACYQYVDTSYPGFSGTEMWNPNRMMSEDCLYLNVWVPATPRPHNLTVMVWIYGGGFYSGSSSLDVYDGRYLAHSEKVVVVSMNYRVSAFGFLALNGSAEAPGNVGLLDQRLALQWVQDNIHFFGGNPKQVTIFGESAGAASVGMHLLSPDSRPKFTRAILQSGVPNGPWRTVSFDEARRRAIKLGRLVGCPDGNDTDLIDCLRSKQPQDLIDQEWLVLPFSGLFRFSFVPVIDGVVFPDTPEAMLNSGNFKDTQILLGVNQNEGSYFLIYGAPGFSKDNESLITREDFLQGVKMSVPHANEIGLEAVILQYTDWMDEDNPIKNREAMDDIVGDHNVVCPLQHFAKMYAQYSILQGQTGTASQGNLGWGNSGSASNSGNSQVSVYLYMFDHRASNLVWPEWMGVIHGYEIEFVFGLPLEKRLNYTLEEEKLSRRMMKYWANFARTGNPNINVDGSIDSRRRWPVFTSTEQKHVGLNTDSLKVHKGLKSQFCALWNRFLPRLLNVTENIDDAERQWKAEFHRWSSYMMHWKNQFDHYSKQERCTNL
Description: (§1) Evaluation of anticholinesterase activity of the synthesized compounds was performed according to Ellman’s method and was determined by obtaining AChE and BChE enzymes from electric eel and equine serum, respectively. DMSO was used for the dissolution of test samples (1 mg/mL), which were diluted in phosphate buffer (0.1 M) to concentrations from 1000 to 62.5 µg/mL. Phosphate buffer in 0.1 M, pH 8.0 was used for the dilution of 518 U/mg AChE and 7–16 U/mg BChE to obtain final concentrations of 0.03 U/mL and 0.01 U/mL for AChE and BChE, respectively. Substrate solutions of 0.5 mM ATchI, 0.2273 mM DTNB and 0.5 mM BTchI in distilled water were made and maintained separately in Eppendorf tubes at 8 °C in a refrigerator. The assay was started by adding 5 µL enzyme solution to a cuvette, then adding 205 µL test sample followed by 5 µL DTNB reagent. A 5 µL volume of substrate solution was added, and the solution mixture was maintained for 15 min in water bath at 30 °C. A spectrophotometer was used to measure absorbance at 412 nm at 30 °C with a reaction time of 4 min. […] The following formula was used for calculation of % enzyme inhibition.

BChE = target: T2, BChE (Equus caballus, UniProt P81908); test: biochemical; settings: for inhibition at 62.5 µg/mL / inhibition at 125 µg/mL / inhibition at 250 µg/mL / inhibition at 500 µg/mL / inhibition at 1000 µg/mL: read-out: BChE percent enzyme inhibition, Mean ± SEM
T2 construct: obtaining AChE and BChE enzymes from electric eel and equine serum, respectively; from tissue; host or cells: equine serum
T2 sequence (P81908 whole entry): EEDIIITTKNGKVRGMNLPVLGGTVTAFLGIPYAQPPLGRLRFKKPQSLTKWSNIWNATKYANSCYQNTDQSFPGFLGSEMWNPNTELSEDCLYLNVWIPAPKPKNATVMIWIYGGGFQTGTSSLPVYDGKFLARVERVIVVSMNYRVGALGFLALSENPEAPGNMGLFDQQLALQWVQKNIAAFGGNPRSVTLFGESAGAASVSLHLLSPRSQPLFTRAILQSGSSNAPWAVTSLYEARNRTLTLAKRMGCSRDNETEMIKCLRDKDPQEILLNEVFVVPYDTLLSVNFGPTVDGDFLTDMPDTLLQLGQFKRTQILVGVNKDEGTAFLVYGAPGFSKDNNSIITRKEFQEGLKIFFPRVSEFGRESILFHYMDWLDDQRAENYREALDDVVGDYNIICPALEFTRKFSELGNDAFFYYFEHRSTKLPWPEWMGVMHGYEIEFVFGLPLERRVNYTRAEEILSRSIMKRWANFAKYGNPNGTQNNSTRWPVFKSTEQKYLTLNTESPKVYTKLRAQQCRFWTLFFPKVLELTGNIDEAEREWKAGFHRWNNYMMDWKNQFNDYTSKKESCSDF
Description: as §1

[1] = system: scopolamine-induced amnesia in mice; test: Elevated plus maze (EPM), scopolamine-induced amnesia; assay type: in vivo, Balb/C mice; settings: then scopolamine 1 mg/kg i.p., mean ± SEM, n = 6
Description: (§2) Balb/C mice iwth a weight of (17–23 gm) were procured from the NIH (National Institute of Health), Islamabad, which were kept for breeding under favorable conditions in the animal house of the Pharmacy Department, Shaheed Benazir Bhutto University Sheringal Dir (Upper). Light/dark cycle of about 12 h each was maintained, with relative humidity of 50–55% at 22–25 °C. This work was conducted with approval from the Departmental Ethical Committee (SBBU/IEC-20-02) of the Scientific Procedure Issue-I of the University of Malakand in compliance with provision of the 2008 Animal Byelaws.
(§3) Mice were divided into thirteen groups with 6 mice in each group.
(§4) Group I. Normal control group (vehicle treated) received 10 mL/kg (i.p.) normal saline.
(§5) Group IV–XIII. Sample (curcumin analog)-treated groups. Synthesized curcumin analogs were administered in doses of 7.5 mg/kg and 15 mg/kg (p.o.), respectively.
(§6) The groups were kept for 7 days at various treatments doses.
The EPM consisted of two open arms and two closed arms with dimensions of 16 cm × 5 cm × 12 cm, and was made from two poly acrylic sheets and designed as a plus sign with a central platform with dimensions of 5 cm × 5 cm, which was elevated 25 cm from the floor on a wooden stand. Mice were placed in the open arm in such a position that their direction was facing away from the central platform; then, the transfer latency time (TLT) was noted when the mice moved to the closed arm with its four legs from the open arm and then returned to their home cage. […] The following formula was used for calculation of inflexion ratio (IR). IR=L0−L1/L0 where L1 = initial transfer latency (s) and L0 = retention transfer latency (s).

[2] = system: T3, BChE in the hippocampus region of mouse brain; assay type: in vivo; settings: pretreatment, then scopolamine, n = 6
T3 construct: from tissue; host or cells: mouse brain hippocampus (supernatant of homogenate)
Description: as §6
(§7) The mice were sacrificed immediately after the behavioral study by cervical dislocation to provide quick and painless death to each animal before decapitation. Brain of each animal was excised in phosphate buffer saline (chilled) and incorporated into biochemical biomarker analysis.
(§8) Cholinesterase (AChE and BChE) levels were determined in the excised brain hippocampus using Ellman’s method with slight modification. Supernatant (0.4 mL), 0.1 M/L, pH 8 phosphate buffer (2.6 mL), and 100 µL of DTNB (5,5′-dithiobis-2-nitrobenzoic acid) and were added into cuvette and mixed. Spectrophotometer at 412 nm was run and absorbance was measured several times, then […] acetyl thiocholine iodide/butyrylthiocholine chloride was mixed into the reaction as substrate at an interval of 2 min, and variation in absorbance was noted and the changes in absorbance per min were recorded. The following formula was used for calculation of cholinesterase level: R = 5.74 × 10^−4 × A/CO where ‘R’ is the moles (rate) of substrate hydrolyzed/min/mg of protein, (A) is the change in absorbance/min, and ‘CO’ is concentration (20 mg/mL) of protein.

[3] = system: T4, AChE in the hippocampus region of mouse brain; assay type: in vivo; settings: pretreatment, then scopolamine, n = 6
T4 construct: from tissue; host or cells: mouse brain hippocampus (supernatant of homogenate)
Description: as §6, §7, §8

[4] = system: scopolamine-induced memory impairment in mice; test: Novel object recognition test (NORT), scopolamine-induced memory impairment; assay type: in vivo, Balb/C mice; settings: for % DI in exploring the novel object versus scopolamine-treated group (in words): long-term memory, donepezil 2 mg/kg; for % DI in exploring the novel object versus scopolamine-treated group (in words) / Exploration time for the novel object in the test phase (in words): h compounds 7.5 and 15 mg/kg; for Exploration time for the novel object in the test phase (in words): DZP 2 mg/kg; for % DI versus scopolamine-treated group (in words): 7.5 and 15 mg/kg p.o.
Description: as §2, §3, §4, §5, §6
The synthesized curcumin analogs were tested for possible memory enhancement potential by using novel object recognition test apparatus, which was designed using plexi glass with dimension of 40 cm × 40 cm × 30 cm. The mice, after acclimatization period, were allowed to move for 2–3 min one day before the test for habituation. In the two corners of the NORT apparatus, two identical objects were placed on the test day in the sample phase (T1), and the object exploration time was recorded. The objects were regarded as being explored when the mice touched the objects or directed their nose toward the object at a distance of less than 2 cm, […], the test phase (T2) was started, in which one of the familiar objects was replaced with a novel (new) object. Mice again freely explored the objects in similar manner to that in T1, and the exploration time for the novel (new) object and the familiar (F) object were noted separately. The DI (discrimination index) was measured using the following formula: DI=N−F/N+F

[5] = Ellman's method, 1000 to 62.5 μg/mL, n = 3, read-out: AChEI (IC50) (converted)
[6] = Ellman's method, 1000 to 62.5 μg/mL, n = 3, read-out: BChEI (IC50) (converted)

Row | Compound | inhibition at 62.5 µg/mL (AChE; 62.5 µg/mL) [%] | inhibition at 125 µg/mL (AChE; 125 µg/mL) [%] | inhibition at 250 µg/mL (AChE; 250 µg/mL) [%] | inhibition at 500 µg/mL (AChE; 500 µg/mL) [%] | inhibition at 1000 µg/mL (AChE; 1000 µg/mL) [%] | IC50 (AChE; [5]) [µM] | inhibition at 62.5 µg/mL (BChE; 62.5 µg/mL) [%] | inhibition at 125 µg/mL (BChE; 125 µg/mL) [%] | inhibition at 250 µg/mL (BChE; 250 µg/mL) [%] | inhibition at 500 µg/mL (BChE; 500 µg/mL) [%] | inhibition at 1000 µg/mL (BChE; 1000 µg/mL) [%] | IC50 (BChE; [6]) [µM] | Retention (transfer latency time, TLT) ([1]; 7.5 mg/kg p.o. for 7 days) [s] | Retention (transfer latency time, TLT) ([1]; 15 mg/kg p.o. for 7 days) [s] | Reversal of scopolamine-increased hippocampus BChE level (in words) [2] | Reversal of scopolamine-increased hippocampus AChE level (in words) [3] | % DI in exploring the novel object versus scopolamine-treated group (in words) [4] | Exploration time for the novel object in the test phase (in words) ([4]; short-term memory) | % DI versus scopolamine-treated group (in words) ([4]; short-term memory) | further results
1 | O=C(/C=C/c1ccc(Cl)cc1)/C=C/c1ccc(Cl)cc1 [h3, (1E,4E)-1,5-bis(4-Chlorophenyl)penta-1,4-dien-3-one] | 53.53 ± 0.12 | 62.44 ± 0.16 | 69.51 ± 0.13 | 77.25 ± 0.11 | 83.31 ± 0.13 | 96.9 | 49.25 ± 0.02 | 58.33 ± 0.13 | 62.41 ± 0.19 | 69.52 ± 0.12 | 78.72 ± 0.16 | 222 | 25.26 ± 2.51 | 21.27 ± 2.92 | significantly reversed | reversed | significant increase | significantly more time exploring the novel object |  | 
2 | CN(C)c1ccc(/C=C/C(=O)/C=C/c2ccc(N(C)C)cc2)cc1 [h4, (1E,4E)-1,5-bis(4-(Dimethylamino)phenyl)penta-1,4-dien-3-one] | 31.41 ± 0.13 | 39.45 ± 0.04 | 46.32 ± 0.15 | 58.16 ± 0.11 | 63.51 ± 0.17 | 920 | 27.16 ± 0.11 | 35.33 ± 0.19 | 42.62 ± 0.12 | 49.51 ± 0.16 | 56.32 ± 0.18 | 1600 | 35.71 ± 1.13 | 30.42 ± 1.24 | no promising results | no prominent | no promising results |  | comparable values | 
3 | COc1cc2c(cc1OC)C(=O)C(CC1CCN(Cc3ccccc3)CC1)C2 (stereo not drawn) [Donepezil, reference compound] |  |  |  |  |  |  |  |  |  |  |  |  |  |  |  |  | significant increase | significantly higher exploration times |  | Retention (transfer latency time, TLT) ([1]; 2 mg/kg p.o. for 7 days): 25.57 ± 1.93 s; Retention (transfer latency time, TLT) ([1]; 2 mg/kg p.o. for 7 days, listed as donepezil): 25.57 ± 1.93 s; Exploration time for the novel object ([4]; short-term memory, test phase, 2 mg/kg p.o. + scopolamine 1 mg/kg i.p.): 21.59 ± 2.44 s
4 | COc1ccc(/C=C/C(=O)/C=C/c2ccc(OC)cc2)cc1 [h2, (1E,4E)-1,5-bis(4-Methoxyphenyl)penta-1,4-dien-3-one] | 46.88 ± 0.15 | 53.57 ± 0.17 | 61.21 ± 0.18 | 73.79 ± 0.12 | 76.23 ± 0.15 | 317 | 41.82 ± 0.18 | 48.61 ± 0.15 | 57.22 ± 0.01 | 64.38 ± 0.06 | 69.77 ± 0.03 | 503 | 31.51 ± 2.73 | 25.32 ± 2.42 | significantly reversed | reversed | significant increase | significantly more time exploring the novel object |  | 
5 | Cc1ccc(/C=C/C(=O)/C=C/c2ccc(C)cc2)cc1 [h1, (1E,4E)-1,5-Di-p-tolylpenta-1,4-dien-3-one] | 45.63 ± 0.13 | 54.34 ± 0.17 | 58.12 ± 0.16 | 68.07 ± 0.18 | 79.67 ± 0.21 | 399 | 37.16 ± 0.12 | 46.25 ± 0.13 | 51.91 ± 0.14 | 56.42 ± 0.16 | 62.16 ± 0.04 | 927 | 33.13 ± 2.16 | 26.18 ± 2.32 | no promising results | no prominent | significant increase |  | comparable values | 
6 | O=C(/C=C/c1ccc([N+](=O)[O-])cc1)/C=C/c1ccc([N+](=O)[O-])cc1 [h5, (1E,4E)-1,5-bis(4-Nitrophenyl)penta-1,4-dien-3-one] |  |  |  |  |  |  |  |  |  |  |  |  | 34.71 ± 1.37 | 31.51 ± 1.54 | no promising results | no prominent | no promising results |  | no promising results | IC50 (AChE): 1950 µM; inhibition at 62.5 µg/mL (AChE): 26.45 ± 0.18%; inhibition at 125 µg/mL (AChE): 35.51 ± 0.06%; inhibition at 250 µg/mL (AChE): 41.27 ± 0.04%; inhibition at 500 µg/mL (AChE): 47.33 ± 0.16%; inhibition at 1000 µg/mL (AChE): 58.41 ± 0.13%; IC50 (BChE): 3050 µM; inhibition at 62.5 µg/mL (BChE): 16.2 ± 0.83%; inhibition at 125 µg/mL (BChE): 20.3 ± 0.31%; inhibition at 250 µg/mL (BChE): 32.73 ± 0.01%; inhibition at 500 µg/mL (BChE): 43.51 ± 0.13%; inhibition at 1000 µg/mL (BChE): 51.82 ± 0.16%
7 | COc1ccc2c3c1O[C@H]1C[C@@H](O)C=C[C@@]31CCN(C)C2 [Galanthamine, reference compound] |  |  |  |  |  |  |  |  |  |  |  |  |  |  |  |  |  |  |  | inhibition at 62.5 µg/mL (BChE): 61.35 ± 0.18%; inhibition at 125 µg/mL (BChE): 66.2 ± 0.15%; inhibition at 250 µg/mL (BChE): 73.42 ± 0.11%; inhibition at 500 µg/mL (BChE): 78.62 ± 0.17%
